Data taken from a flash point compilation (Sun et al. 2020).
Where “and” joins values, the source holds several entries; their conditions need not be identical. Equal values may be shown once. Values belong to the molecule of their own block, whether it stands above or below them.

Legend:
[1] = not given; remark: listed apart in the source
[2] = not given; remark: listed apart in the source
[3] = not given; remark: listed apart in the source
[4] = not given; remark: listed apart in the source
[5] = not given; remark: listed apart in the source

SMILES: C[Si]1(C)CCCCO1 [1,1-Dimethyl-1-sila-2-oxacyclohexane]
flash point: 14.00 °C

SMILES: COCCOCCOCCOC [1,2-bis(2-methoxyethoxy)ethane]
flash point [1]: 113.00 °C

SMILES: COc1ccccc1OC [1,2-dimethoxybenzene]
flash point [1]: 72.00 °C

SMILES: C=C[Si](C)(C)N[Si](C)(C)C=C [1,3-Divinyltetramethyldisilazane]
flash point: 34.00 °C

SMILES: C1COCCO1 [1,4-dioxane]
flash point [2]: 12.00 °C
flash point [1]: 18.33 °C

SMILES: CC(=O)c1ccccn1 [1-(2-pyridyl)ethanone]
flash point [1]: 76.00 °C

SMILES: CCCCOCCOCCOCCCC [1-[2-(2-butoxyethoxy)ethoxy]butane]
flash point [2]: 118.00 °C
flash point [1]: 101.00 °C

SMILES: CC(Cl)OC(C)Cl (configuration not stated) [1-chloro-1-(1-chloroethoxy)ethane]
flash point [1]: 55.00 °C

SMILES: ClCCOCCCl [1-chloro-2-(2-chloroethoxy)ethane]
flash point [1]: 55.00 °C

SMILES: COCCCl [1-chloro-2-methoxyethane]
flash point [1]: 15.00 °C

SMILES: Clc1ccc(Oc2ccccc2)cc1 [1-chloro-4-(phenoxy)benzene]
flash point [1]: 113.00 °C

SMILES: CC(O)CCl (configuration not stated) [1-chloropropan-2-ol]
flash point [1]: 51.00 °C

SMILES: CC(C)CCOCCC(C)C [1-isopentyloxy-3-methylbutane]
flash point [1]: 46.00 °C

SMILES: COCC(C)O (configuration not stated) [1-methoxypropan-2-ol]
flash point [1]: 33.00 °C

SMILES: OCC(CO)(CO)CO [2,2-bis(hydroxymethyl)propane-1,3-diol]
flash point [1]: 240.00 °C

SMILES: CCC(CC)(CO)CO [2,2-diethylpropane-1,3-diol]
flash point [1]: 107.00 °C

SMILES: CC(C)C(C)C(C)CO (configuration not stated) [2,3,4-trimethylpentan-1-ol]
flash point [1]: 60.00 °C

SMILES: CC(C)(C)c1cccc(C(C)(C)C)n1 [2,6-ditert-butylpyridine]
flash point [1]: 72.00 °C

SMILES: OCCOCCO [2-(2-hydroxyethoxy)ethanol]
flash point [1]: 138.33 °C and 143.00 °C

SMILES: CCCCOCC1CO1 (configuration not stated) [2-(butoxymethyl)oxirane]
flash point [2]: 54.00 °C
flash point [1]: 41.00 °C

SMILES: CC(CO)(CO)CO [2-(hydroxymethyl)-2-methylpropane-1,3-diol]
flash point [1]: 160.00 °C

SMILES: c1ccc(OCC2CO2)cc1 (configuration not stated) [2-(phenoxymethyl)oxirane]
flash point [1]: 115.00 °C

SMILES: C=C(CCl)C[Si](C)(C)C [2-Chloromethyl-3-trimethylsilyl-1-propene]
flash point: 43.00 °C

SMILES: OCCOCCOCCO [2-[2-(2-hydroxyethoxy)ethoxy]ethanol]
flash point [1]: 162.78 °C

SMILES: CCCCC(CC)(CO)CO [2-butyl-2-ethylpropane-1,3-diol]
flash point [1]: 113.00 °C

SMILES: Nc1ccccc1Cl [2-chloroaniline]
flash point [1]: 98.00 °C

SMILES: Clc1ccccn1 [2-chloropyridine]
flash point [3]: 66 °C
flash point [1]: 64.00 °C

SMILES: CCN(CC)CCO [2-diethylaminoethanol]
flash point [1]: 51.50 °C

SMILES: CCC(CC)CO [2-ethylbutan-1-ol]
flash point [2]: 53.00 °C
flash point [1]: 58.33 °C

SMILES: OCc1ccco1 [2-furylmethanol]
flash point [1]: 83.33 °C

SMILES: CCC(C)(C)O [2-methylbutan-2-ol]
flash point [2]: 19.00 °C
flash point [1]: 20.00 °C

SMILES: CC(C)(C)CCO [3,3-dimethylbutan-1-ol]
flash point [1]: 29.00 °C

SMILES: C[Si](Cl)(Cl)CCCCl [3-Chloropropylmethyldichlorosilane]
flash point: 86.00 °C

SMILES: Nc1cccc(Cl)c1 [3-chloroaniline]
flash point [1]: 118.00 °C

SMILES: CCCCC(C)(O)CC (configuration not stated) [3-methylheptan-3-ol]
flash point [1]: 54.00 °C

SMILES: C=CC1CC=CCC1 (configuration not stated) [4-vinylcyclohexene]
flash point [1]: 21.00 °C

SMILES: CCC(C)CC(O)CC (configuration not stated) [5-methylheptan-3-ol]
flash point [1]: 54.00 °C

SMILES: C/C=C\C [(z)-but-2-ene]
flash point [1]: -73.00 °C

SMILES: C[Si](C)(C)CBr [Bromomethyltrimethylsilane]
flash point: 16.00 °C

SMILES: CCO[Si](C)(C)CCl [Chloromethyldimethylethoxysilane]
flash point: 26.00 °C

SMILES: C[Si](Cl)(Cl)CCC#N [Cyanoethylmethyldichlorosilane]
flash point: 60.00 °C

SMILES: Cl[SiH](Cl)C1CCCC1 [Cyclopentyldichlorosilane]
flash point: 43.00 °C

SMILES: Cl[Si](Cl)(Cl)C1CCCC1 [Cyclopentyltrichlorosilane]
flash point: 77.00 °C

SMILES: C[Si](C)(C)O[Si](C)(C)O[Si](C)(C)O[Si](C)(C)C [Decamethyltetrasiloxane]
flash point: 62.00 °C

SMILES: C[Si](Cl)(Cl)C(Cl)Cl [Dichloromethylmethyldichlorosilane]
flash point: 28.00 °C

SMILES: CC[Si](C)(Cl)CC [Diethylmethylchlorosilane]
flash point: 15.00 °C

SMILES: CC[SiH2]CC [Diethylsilane]
flash point: -20.00 °C

SMILES: C[SiH](C)c1c(F)c(F)c(F)c(F)c1F [Dimethyl(pentafluorophenyl) silane]
flash point: 40.00 °C

SMILES: C[SiH](C)Cl [Dimethylchlorosilane]
flash point: -28.00 °C

SMILES: CCO[Si](C)(C)OCC [Dimethyldiethoxysilane]
flash point: 11.00 °C

SMILES: C=C[Si](C)(C)C=C [Divinyldimethylsilane]
flash point: 8.00 °C

SMILES: CCO[Si](C)(C)C [Ethoxytrimethylsilane]
flash point: -27.00 °C

SMILES: CC[Si](Cl)(Cl)Cl [Ethyltrichlorosilane]
flash point: -10.00 °C

SMILES: CC[Si](OC)(OC)OC [Ethyltrimethoxysilane]
flash point: 27.00 °C

SMILES: CN([Si](C)(C)C)[Si](C)(C)C [Heptamethyldisilazane]
flash point: 27.00 °C

SMILES: C[Si](C)(C)O[Si](C)(C)O[Si](C)(C)O[Si](C)(C)O[Si](C)(C)O[Si](C)(C)O[Si](C)(C)C [Hexadecamethylheptasiloxane]
flash point: 133.00 °C

SMILES: C[Si](C)(C)O[SiH2]O[Si](C)(C)C [Hexamethyltrisiloxane]
flash point: 20.00 °C

SMILES: CN(C)C=O [N,N-dimethylformamide]
flash point [2]: 67.00 °C
flash point [1]: 57.00 °C

SMILES: CCNCC [N-ethylethanamine]
flash point [2]: -29.00 °C
flash point [1]: -28.00 °C

SMILES: CC(O)CCO (configuration not stated) [butane-1,3-diol]
flash point [1]: 108.89 °C

SMILES: OCCCCO [butane-1,4-diol]
flash point [1]: 121.11 °C

SMILES: CCCCCCO [hexan-1-ol]
flash point [2]: 63.00 °C
flash point [1]: 73.89 °C

SMILES: CCCCCCC(C)O (configuration not stated) [octan-2-ol]
flash point [2]: 76.00 °C
flash point [1]: 85.00 °C

SMILES: CCCC(C)O (configuration not stated) [pentan-2-ol]
flash point [2]: 35.00 °C
flash point [1]: 40.56 °C

SMILES: OCCCCCO [pentane-1,5-diol]
flash point [1]: 129.44 °C

Other lines, results leading:

flash point: 64.00 °C
SMILES: CCCCCC[SiH](Cl)Cl [Hexyldichlorosilane]

flash point: 12.00 °C
SMILES: CCCCCC[SiH3] [Hexylsilane]

flash point: 62.00 °C
SMILES: CCCCCC[Si](OC)(OC)OC [Hexyltrimethoxysilane]

flash point: 15.00 °C
SMILES: C[Si](C)(C)I [Iodotrimethylsilane]

flash point: 138.00 °C
SMILES: C[Si](Cl)(c1ccccc1)c1ccccc1 [Methyldiphenylchlorosilane]

flash point [4]: 0.00 °C
SMILES: C[Si](C)(C)OC(=O)C(F)(F)F [Trimethylsilyltrifluoroacetate]

flash point [4]: 143.20 °C
SMILES: c1ccc([SiH](c2ccccc2)c2ccccc2)cc1 [Triphenylsilane]

flash point [4]: 55.00 °C
SMILES: C[Si](C)(C)[SiH]([Si](C)(C)C)[Si](C)(C)C [Tris(trimethylsilyl)silane]

flash point [4]: 0.00 °C
SMILES: [SiH3][SiH2][SiH3] [Trisilane]

flash point [4]: 4.00 °C
SMILES: C=C[Si](C)(C)OCC [Vinyldimethylethoxysilane]

flash point [4]: 21.00 °C
SMILES: C=C[Si](Cl)(Cl)Cl [Vinyltrichlorosilane]

flash point [4]: 23.00 °C
SMILES: C=C[Si](OC)(OC)OC [Vinyltrimethoxysilane]

flash point [1]: 187.80 °C
SMILES: OCc1ccc(CO)cc1 [[4-(hydroxymethyl)phenyl]methanol]

flash point [1]: 62.00 °C
SMILES: C=CCOc1ccccc1 [allyloxybenzene]

flash point [2]: 24.00 °C
flash point [1]: 22.22 °C
SMILES: CCC(C)O (configuration not stated) [butan-2-ol]

flash point [5]: -17 °C
flash point [3]: -12 °C
flash point [1]: -30.00 °C
SMILES: C1=CCCCC1 [cyclohexene]

flash point [2]: 82.00 °C
flash point [1]: 104.44 °C
SMILES: CCCCCCCCCCO [decan-1-ol]

flash point [1]: -46.00 °C
SMILES: C=COCC [ethoxyethylene]

flash point [1]: 54.00 °C
SMILES: CCCCCC(C)N (configuration not stated) [heptan-2-amine]

flash point [4]: 30.00 °C
SMILES: CCCC[Si](C)(Cl)Cl [n-Butylmethyldichlorosilane]

flash point [4]: 143.00 °C
SMILES: CCCCCCCCCCCC[Si](C)(Cl)Cl [n-Dodecylmethyldichlorosilane]

flash point [4]: 66.00 °C
SMILES: CCCCCCC[Si](C)(Cl)Cl [n-Heptylmethyldichlorosilane]

flash point [4]: 64.00 °C
SMILES: CCCCCCC[Si](Cl)(Cl)Cl [n-Heptyltrichlorosilane]

flash point [4]: 85.00 °C
SMILES: CCCCCC[Si](C)(Cl)Cl [n-Hexylmethyldichlorosilane]

flash point [4]: 85.00 °C
SMILES: CCCCCC[Si](Cl)(Cl)Cl [n-Hexyltrichlorosilane]

flash point [4]: 193.00 °C
SMILES: CCCCCCCCCCCCCCCCCC[Si](Cl)(Cl)Cl [n-Octadecyltrichlorosilane]

flash point [4]: 36.00 °C
SMILES: CCCCCCCC[SiH3] [n-Octylsilane]

flash point [4]: 37.00 °C
SMILES: CCC[Si](Cl)(Cl)Cl [n-Propyltrichlorosilane]

flash point [1]: 68.00 °C
SMILES: C=CC(O)CCCCC (configuration not stated) [oct-1-en-3-ol]

flash point [2]: 81.00 °C
flash point [1]: 90.56 °C
SMILES: CCCCCCCCO [octan-1-ol]

flash point [1]: 79.00 °C
SMILES: OCCCO [propane-1,3-diol]

flash point [4]: -22.00 °C
SMILES: C[SiH](C)C(C)(C)C [t-Butyld imethyl silane]

flash point [2]: 141.00 °C
flash point [1]: 145.00 °C
SMILES: CCCCCCCCCCCCCCO [tetradecan-1-ol]

flash point [2]: 121.00 °C
flash point [1]: 116.00 °C
SMILES: CCCCCCCCCCCCCO [tridecan-1-ol]
